Measurements from patent US20220168298A1, “CANCER TREATMENT” (Janssen Pharmaceutica NV, priority 2019, published 2022).
Where two headings read alike, the source gives them in different places.

[1] = Regimen 2 6 mg continuous (n = 78)

Method: Study treatment is administered on 28-day cycles. Prior to interim analysis 1, there were 2 treatment regimens.
Safety was assessed continuously by the investigator and based on medical review of AE reports and the results of vital sign measurements, physical examinations, clinical laboratory tests, ECOG performance status, and other safety evaluations.
Safety data are presented for the safety population (N=207, enrolled between May 7, 2015, and Dec. 5, 2017), defined as patients who received at least 1 dose of study treatment.
An analysis was done on 99 NCT02365597 patients who received the dose regimen of 8 mg/day continuous (pharmacodynamically guided uptitrated to 9 mg/d per serum phosphate as described herein, Regimen 3) to explore efficacy among high-risk patients. […] High-risk patients are defined as patients meeting one or more of the following criteria: • age ≥75 years; • ECOG PS 2 (Eastern Cooperative Oncology Group Performance Status 2; Oken M, Creech R, Tormey D, et al. Toxicity and response criteria of the Eastern Cooperative Oncology Group. Am J Clin Oncol. 1982; 5:649-655) • hemoglobin <10 g/dL; • visceral metastases of the liver, lung and/or bone; • 2 or 3 Bellmunt risk factors (Bellmunt J, Choueiri T K, Fougeray R, et al: Prognostic factors in patients with advanced transitional cell carcinoma of the urothelial tract experiencing treatment failure with platinum-containing regimens.
Final analysis for NCT02365597 was conducted, per protocol 12 months after the last subject was enrolled.

Compound: COc1cc(OC)cc(N(CCNC(C)C)c2ccc3ncc(-c4cnn(C)c4)nc3c2)c1 [erdafitinib, N-(3,5-dimethoxyphenyl)-N′-(1-methylethyl)-N-[3-(1-methyl-1H-pyrazol-4-yl)quinoxalin-6-yl]ethane-1,2-diamine]
- TRAE Nail dystrophy, Grade ≥3 [1]: 0 n
- TRAE Palmar-plantar erythrodysaesthesia syndrome, Grade ≥3 [1]: 0 n
- TRAE Paronychia, Grade ≥3 [1]: 0 n
- treatment-related deaths (across all dose regimens (N = 207)): no treatment-related deaths
- treatment-related deaths (final analysis, 101 patients): no treatment-related deaths
- CSR events resolved on the data cut-off date (human, in vivo): 63%
- CSR events resolved on the data cut-off date, n/N (human, in vivo): 17/27
- CSR events that were Grade 1 or 2 (human, in vivo): 85%
- CSR events that were Grade 1 or 2, n/N (human, in vivo): 23/27
- Treatment discontinuation rates for adverse events (human, in vivo): approximately 20%
- dosage discontinued for CSR (human, in vivo): 3 patients
- dosage interrupted for CSR (human, in vivo): 8 patients
- dosage reduced for CSR (human, in vivo): 13 patients
- grade 3/4 serious adverse events proportions by subgroup, range (human, in vivo): 26.7-36.4%
- ongoing CSR events that were Grade 1 (human, in vivo): 60%
- ongoing CSR events that were Grade 1, n/N (human, in vivo): 6/10
- patients reporting retinopathy (human, in vivo): 2 patients
- patients reporting retinopathy, grade 2 (human, in vivo): 1 n
- patients reporting retinopathy, grade 3 (human, in vivo): 1 n
- patients with Central serous retinopathy (CSR) events (human, in vivo): 27%
- patients with Central serous retinopathy (CSR) events, n/N (human, in vivo): 27/101
